# Values joined by “and” are separate entries in the source; they are usually repeats but may differ in a detail not shown here. Equal values may be shown once. Marks after values point to notes of the source that are not given here.
# What was measured:
# [1] = system: PSMA-positive LNCaP cells; assay: Internalization in LNCaP cells, normalized to ([125I]I-BA)KuE; type: cell-based; details: LNCaP cells, 1 hour, 37° C.
# Procedure: Data is corrected for non-specific binding ([…]) and expressed as mean±SD (n=3).
# Subsequent to the removal of the culture medium, the cells were washed once with 500 μL DMEM-F12 (5% BSA) and left to equilibrate for at least 15 min at 37° C. in 200 μL DMEM-F12 (5% BSA). Each well was treated with either 25 μL of either DMEM-F12 (5% BSA) or a 100 μM PMPA solution for blockade. Next, 25 μL of the ^68Ga/^18F-labeled PSMA inhibitor (5.0 nM) was added and the cells incubated at 37° C. for 60 min. The experiment was terminated by placing the 24-well plate on ice for 3 min and consecutive removal of the medium. Each well was rinsed with 250 μL HBSS and the fractions from these first two steps combined, representing the amount of free radioligand. Removal of surface bound activity was accomplished by incubation of the cells with 250 μL of ice-cold PMPA (10 μM in PBS) solution for 5 min and rinsed again with another 250 μL of ice-cold PBS. The internalized activity was determined by incubation of the cells in 250 μL 1 M NaOH and the combination with the fraction of a subsequent wash step with 250 μL 1.0 M NaOH. Each experiment (control and blockade) was performed in triplicate. Free, surface bound and internalized activity was quantified in a γ-counter. […] Data were corrected for non-specific internalization and normalized to the specific-internalization observed for the radioiodinated reference compound.
# [2] = system: LNCaP tumor bearing mouse; assay: Radio-TLC analysis of intact tracer and 18F-fluoride in blood, organ and urine samples, 30 min p.i.; type: in vivo, mice
# Procedure: For radio-thin-layer chromatography, aluminum sheets coated with silica gel 60 RP-18 F254s were used with a mobile phase consisting of a 3:2 mixture (v/v) of MeCN in H2O supplemented with 10% of 2 M aqueous NaOAc and 1% of TFA. Analysis was performed using either a Scan-RAM radio-TLC detector (LabLogic Systems Ltd., Sheffield, United Kingdom) or a CR 35 BIO phosphorimager (Duerr Medical GmbH, Bietigheim-Bissingen, Germany).
# In order to quantify the relative uptake of each isomer (rhPSMA-7.1-7.4), a tumor-bearing male CB-17-SCID mouse was injected with the racemic mixture of rhPSMA-7 (180-280 MBq, SA=247-349 GBq/μmol, produced at the Klinikum rechts der Isar in a fully automated procedure). The animal was left under anesthesia for 30 min and sacrificed. Urine, blood, liver, kidneys and tumor were collected and processed to the hereafter described procedures. The urine sample was centrifuged for 5 min at 9000 rpm to yield a clear solution and directly subjected to radio-HPLC analysis. Blood was diluted to 1 mL with H2O and centrifuged twice at 13000 g for 5 min. The supernatant was collected and loaded on a Strata X cartridge (33 μm Polymeric Reversed Phase 500 mg, pre-conditioned with 5 mL MeOH, followed by 5 mL H2O). After washing with 5 mL H2O, the cartridge was eluted with a 6:4 mixture (v/v) of MeCN in H2O, supplemented with 1% TFA. The eluate was diluted with water and analysed by radio-HPLC. Tumour, kidneys and liver were homogenised using either a Potter-Elvehjem tissue grinder (Kontes Glass Co, Vineland, USA) or a MM-400 ball mill (Retsch GmbH, Haan, Germany).
# The organs (tumour, kidney, liver) were separately homogenised in a 2 mL tube together with 3 grinding balls (3 mm diameter) and 1 mL of extraction buffer (850 μL 1 M HEPES pH7.4, 100 μL 20 mM PMPA and 100 μL 1M NaCl) for 10 min at 30 Hz. The homogenate was centrifuged at 13000 g for 5 min and the supernatant was collected. Subsequently, the pellet was suspended in 1 mL of extraction buffer and homogenized again with the ball mill for 10 min at 30 Hz. After centrifugation (13000 g, 5 min), both supernatants were combined and loaded on a Strata X cartridge (33 μm Polymeric Reversed Phase 500 mg, pre-conditioned with 5 mL MeOH, followed by 5 mL H2O). After washing with 5 mL H2O, the cartridge was eluted with a 6:4 mixture (v/v) of MeCN in H2O, supplemented with 1% TFA. The eluate of each organ was diluted with water and analysed by radio-HPLC.
# Radio-TLC Analysis was carried out a) on urine samples by directly subjecting a small volume onto a TLC strip, b) by analysis of a small volume of the non-immobilized activity during the SPE process (the ‘breakthrough fraction’), and c) by analysis of a small volume of the cartridge eluates.
# Since none of the reagents and salts normally used for protein precipitation are tested for cold fluoride and to avoid possible liberation of F-18-fluoride from the tracer by isotopic exchange, protein precipitation was not implemented in the sample preparation process—although such protein load often result in limited peak separation, peak tailing and activity that sticks at the start line. The solutions obtained after tissue extraction (or blood centrifugation) were directly used for TLC analysis.
# [3] = Phosphoimager, listed as [^18F]rhPSMA7-rac
# [4] = TLC Scanner, listed as [^18F]rhPSMA7-rac
Molecule,"individual internalization rates ([1]; c=0.5 nM, single measurements)",internalization rate Mean ([1]; mean),"Intact tracer, Blood ([2]; Phosphoimager) [%]","Intact tracer, Kidney ([2]; Phosphoimager) [%]","Intact tracer, Tumor ([2]; Phosphoimager) [%]","^18F-Fluoride, Blood ([2]; Phosphoimager) [%]","^18F-Fluoride, Kidney ([2]; Phosphoimager) [%]","^18F-Fluoride, Tumor ([2]; Phosphoimager) [%]","Intact tracer, Liver [2, 3]","Intact tracer, Urine [2, 3]","^18F-Fluoride, Urine [2, 3]","Intact tracer, Kidney [2, 4]","Intact tracer, Urine [2, 4]","^18F-Fluoride, Kidney [2, 4]"
"CC(C)(C)[Si](F)(c1ccc(C(=O)NC[C@@H](NC(=O)CC[C@@H](C(=O)O)N2CCN(CC(=O)[O-])CCN(CC(=O)[O-])CCN(CC(=O)[O-])CC2)C(=O)N[C@H](CCCCNC(=O)CCC(=O)NCCC[C@@H](NC(=O)CC[C@H](NC(=O)N[C@@H](CCC(=O)O)C(=O)O)C(=O)O)C(=O)O)C(=O)O)cc1)C(C)(C)C.[Ga+3] [rhPSMA7.3, [^19F][^natGa]D-Dap-S-DOTAGA-rhPSMA7]",156.6 % of [^125I]IB-KuE and 156.0 % of [^125I]IB-KuE and 171.7 % of [^125I]IB-KuE,161.41 % of [^125I]IB-KuE,,,,,,,,,,,,
[^19F][^natGa]D/L-Dap-R/S-DOTAGA-rhPSMA7 [rhPSMA7-rac],,,96.80,96.48,96.47,3.20,3.52,4.15,93.92^# % and 74.15^# %,98.55% and 95.85%,1.55% and 4.15%,94.04% and 94.58%,82.51% and 96.2%,5.96% and 5.42%

# From patent publication US12357711B2, “PSMA binding dual mode radiotracer and therapeutic” (Technische Universität München, priority 2019, dated 2025)
